Assay results: ChEMBL document CHEMBL1201862, “PubChem BioAssay data set” (2004)
Each block holds one compound with its values, some of them ahead of it. Activity calls are given as the source filed them.

How the values were obtained:
[1] = target: Induced myeloid leukemia cell differentiation protein Mcl-1 (Homo sapiens, UniProt Q07820); format: functional
[2] = target: T1, Mannose-6-phosphate isomerase (Homo sapiens, UniProt P34949); assay: MPI inhibition at elevated mannose 6-phosphate – biochemical, fluorescence intensity, high mannose 6-phosphate, primary screen (AID 1220)
T1 sequence (P34949 whole entry): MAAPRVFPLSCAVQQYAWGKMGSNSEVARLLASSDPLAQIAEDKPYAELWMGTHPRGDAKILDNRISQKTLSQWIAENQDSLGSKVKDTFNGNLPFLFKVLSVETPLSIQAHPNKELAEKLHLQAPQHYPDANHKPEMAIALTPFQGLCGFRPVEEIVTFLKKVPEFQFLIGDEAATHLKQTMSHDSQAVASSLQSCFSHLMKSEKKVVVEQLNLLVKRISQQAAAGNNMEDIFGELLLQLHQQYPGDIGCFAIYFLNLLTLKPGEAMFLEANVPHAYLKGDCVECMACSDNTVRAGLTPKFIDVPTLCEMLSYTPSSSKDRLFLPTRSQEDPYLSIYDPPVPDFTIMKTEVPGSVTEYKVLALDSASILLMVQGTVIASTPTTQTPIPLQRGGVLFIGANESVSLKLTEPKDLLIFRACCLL

[3] = target: Hepatocyte nuclear factor 4-alpha (Homo sapiens, UniProt P41235); format: functional, cell-based;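 further: biochemical luminescence-based dose-response counterscreen measuring inhibition of HNF4 dimerization, run alongside a screen for blockers of ABHD5–perilipin-5 interaction; split luciferase complementation of HNF4 fusion proteins in cell lysate measuring dimerization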
Chain of Hepatocyte nuclear factor 4-alpha (P41235 whole entry, the tested form may be a part): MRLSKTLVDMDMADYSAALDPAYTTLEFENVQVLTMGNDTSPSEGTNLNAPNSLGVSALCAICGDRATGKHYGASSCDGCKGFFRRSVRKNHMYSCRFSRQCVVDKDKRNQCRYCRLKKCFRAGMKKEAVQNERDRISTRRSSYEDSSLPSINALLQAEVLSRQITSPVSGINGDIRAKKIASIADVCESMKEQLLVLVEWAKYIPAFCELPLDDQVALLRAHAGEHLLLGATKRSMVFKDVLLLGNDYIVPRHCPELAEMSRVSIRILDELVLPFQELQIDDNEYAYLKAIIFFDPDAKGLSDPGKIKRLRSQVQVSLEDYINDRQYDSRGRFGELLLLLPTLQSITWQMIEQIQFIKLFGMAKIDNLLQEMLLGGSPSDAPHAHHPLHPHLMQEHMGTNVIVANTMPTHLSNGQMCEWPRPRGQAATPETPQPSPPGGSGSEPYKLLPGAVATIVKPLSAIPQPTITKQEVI

[4] = target: Nuclear receptor subfamily 5 group A member 2 (Homo sapiens, UniProt O00482); format: functional, cell-based;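 further: HEK293T cells transfected with LRH-1 and a StAR promoter luciferase reporter; potency for inhibitors that lower LRH-1 driven reporter light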
Chain of Nuclear receptor subfamily 5 group A member 2 (O00482 whole entry): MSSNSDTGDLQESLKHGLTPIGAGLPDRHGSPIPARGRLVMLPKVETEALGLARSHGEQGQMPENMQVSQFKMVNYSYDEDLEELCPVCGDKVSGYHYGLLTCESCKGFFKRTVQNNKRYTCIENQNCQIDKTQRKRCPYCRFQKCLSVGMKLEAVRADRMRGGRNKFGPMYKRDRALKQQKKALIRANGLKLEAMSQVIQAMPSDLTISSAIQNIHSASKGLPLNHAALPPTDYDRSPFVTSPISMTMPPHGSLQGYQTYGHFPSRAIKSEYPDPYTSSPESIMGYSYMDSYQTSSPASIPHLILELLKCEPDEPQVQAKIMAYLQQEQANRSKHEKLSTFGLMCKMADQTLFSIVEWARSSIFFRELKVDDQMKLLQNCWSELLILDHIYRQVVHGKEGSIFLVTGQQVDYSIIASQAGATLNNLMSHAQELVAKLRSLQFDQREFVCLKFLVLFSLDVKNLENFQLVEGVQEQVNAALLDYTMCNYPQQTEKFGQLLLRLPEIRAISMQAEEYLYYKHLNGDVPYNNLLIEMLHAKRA

[5] = nonselective StAR promoter luciferase inhibitors – cell-based, luminescence, luciferase reporter, counter-screen for LRH-1 inverse agonist project, dose response (AID 651969); format: functional
Steroidogenic factor 1 = Steroidogenic factor 1 (Homo sapiens, UniProt Q13285); assay: Counterscreen for inverse agonists of the liver receptor homolog-1 (LRH-1; NR5A2): Luminescence-based cell-based high throughput dose response assay to identify inverse agonists of the Steroidogenic Factor 1 Nuclear Receptor (SF1; NR5A1).; format: functional
Chain of Steroidogenic factor 1 (Q13285 whole entry): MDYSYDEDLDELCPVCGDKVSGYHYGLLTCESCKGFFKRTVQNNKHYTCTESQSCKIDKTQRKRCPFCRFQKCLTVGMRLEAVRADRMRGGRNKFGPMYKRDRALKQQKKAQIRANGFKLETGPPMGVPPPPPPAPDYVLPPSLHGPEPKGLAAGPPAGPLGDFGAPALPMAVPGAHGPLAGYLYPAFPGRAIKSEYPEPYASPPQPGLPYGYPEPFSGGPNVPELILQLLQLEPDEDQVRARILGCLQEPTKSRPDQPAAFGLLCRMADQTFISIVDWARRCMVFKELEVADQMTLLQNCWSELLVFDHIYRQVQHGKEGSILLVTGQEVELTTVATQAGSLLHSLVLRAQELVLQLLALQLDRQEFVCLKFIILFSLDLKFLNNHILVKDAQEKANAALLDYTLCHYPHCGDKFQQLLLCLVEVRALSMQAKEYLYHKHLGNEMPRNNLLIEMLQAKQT

Paired box protein Pax-8 = Paired box protein Pax-8 (Homo sapiens, UniProt Q06710); assay: PAX8 transcriptional activity inhibition in RMG-I – RMG-I cells, luciferase, cherry-pick, dose response (AID 687027); format: functional, cell-based;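 further: luciferase reporter driven by Pax8 target thyroperoxidase promoter measured by SteadyGlo luminescence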
Chain of Paired box protein Pax-8 (Q06710 whole entry): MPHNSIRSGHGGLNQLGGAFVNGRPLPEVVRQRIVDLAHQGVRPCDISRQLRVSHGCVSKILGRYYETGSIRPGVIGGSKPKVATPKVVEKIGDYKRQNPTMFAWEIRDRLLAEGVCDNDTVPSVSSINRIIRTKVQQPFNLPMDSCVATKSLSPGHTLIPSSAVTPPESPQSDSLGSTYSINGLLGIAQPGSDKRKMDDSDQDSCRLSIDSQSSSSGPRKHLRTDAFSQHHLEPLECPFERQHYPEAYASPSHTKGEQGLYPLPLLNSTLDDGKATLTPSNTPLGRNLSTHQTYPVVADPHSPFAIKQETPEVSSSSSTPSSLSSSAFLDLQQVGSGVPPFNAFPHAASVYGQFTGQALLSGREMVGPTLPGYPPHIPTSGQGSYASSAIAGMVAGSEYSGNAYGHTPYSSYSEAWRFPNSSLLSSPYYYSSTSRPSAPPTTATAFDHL

[6] = target: SWI/SNF-related matrix-associated actin-dependent regulator of chromatin subfamily A member 2 (Homo sapiens, UniProt P51531); assay: Luminescence-based cell-based high throughput dose response assay to identify activators of the function of SWI/SNF related, matrix associated, actin dependent regulator of chromatin, subfamily a, member 2 (SMARCA2, BRM).; format: functional
Chain of SWI/SNF-related matrix-associated actin-dependent regulator of chromatin subfamily A member 2 (P51531 whole entry): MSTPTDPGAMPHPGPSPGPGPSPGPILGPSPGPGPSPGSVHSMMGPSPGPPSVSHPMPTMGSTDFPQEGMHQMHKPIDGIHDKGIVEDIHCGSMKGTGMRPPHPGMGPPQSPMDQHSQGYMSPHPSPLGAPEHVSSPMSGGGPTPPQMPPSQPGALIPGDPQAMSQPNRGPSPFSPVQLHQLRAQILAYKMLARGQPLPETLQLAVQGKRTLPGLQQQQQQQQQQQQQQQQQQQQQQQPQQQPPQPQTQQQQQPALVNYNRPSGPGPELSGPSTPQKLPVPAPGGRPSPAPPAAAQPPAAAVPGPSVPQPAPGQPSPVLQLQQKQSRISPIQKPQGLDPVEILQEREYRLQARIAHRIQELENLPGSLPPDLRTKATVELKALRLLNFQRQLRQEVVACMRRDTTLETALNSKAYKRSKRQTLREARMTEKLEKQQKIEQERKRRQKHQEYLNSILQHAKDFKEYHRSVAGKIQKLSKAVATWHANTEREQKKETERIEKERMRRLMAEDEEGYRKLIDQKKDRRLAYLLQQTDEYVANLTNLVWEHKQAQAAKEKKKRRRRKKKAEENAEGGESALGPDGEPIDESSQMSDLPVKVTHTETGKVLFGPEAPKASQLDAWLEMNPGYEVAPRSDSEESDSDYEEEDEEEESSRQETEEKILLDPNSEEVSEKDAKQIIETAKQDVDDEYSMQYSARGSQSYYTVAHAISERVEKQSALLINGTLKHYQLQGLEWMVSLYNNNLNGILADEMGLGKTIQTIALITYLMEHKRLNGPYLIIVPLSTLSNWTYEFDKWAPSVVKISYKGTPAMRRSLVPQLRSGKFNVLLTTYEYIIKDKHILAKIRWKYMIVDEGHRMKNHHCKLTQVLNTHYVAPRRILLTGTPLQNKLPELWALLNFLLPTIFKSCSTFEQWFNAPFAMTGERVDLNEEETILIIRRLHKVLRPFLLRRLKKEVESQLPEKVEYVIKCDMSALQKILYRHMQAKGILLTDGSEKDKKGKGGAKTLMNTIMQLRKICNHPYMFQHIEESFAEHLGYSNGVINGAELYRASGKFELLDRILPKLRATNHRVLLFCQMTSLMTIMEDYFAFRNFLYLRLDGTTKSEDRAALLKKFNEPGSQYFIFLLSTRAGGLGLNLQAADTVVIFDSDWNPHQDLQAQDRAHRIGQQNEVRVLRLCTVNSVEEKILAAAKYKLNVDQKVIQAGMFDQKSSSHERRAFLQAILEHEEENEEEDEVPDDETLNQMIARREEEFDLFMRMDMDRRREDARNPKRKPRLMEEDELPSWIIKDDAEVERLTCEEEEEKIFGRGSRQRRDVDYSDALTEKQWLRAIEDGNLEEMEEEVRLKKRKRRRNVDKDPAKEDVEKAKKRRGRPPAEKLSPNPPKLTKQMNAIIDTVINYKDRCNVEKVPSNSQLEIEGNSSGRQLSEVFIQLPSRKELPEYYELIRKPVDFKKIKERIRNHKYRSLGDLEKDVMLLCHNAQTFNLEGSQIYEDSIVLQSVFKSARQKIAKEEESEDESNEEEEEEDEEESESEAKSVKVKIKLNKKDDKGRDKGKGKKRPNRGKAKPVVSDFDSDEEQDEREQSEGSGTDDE

Interleukin-8 [7] = target: T2, Interleukin-8 (Homo sapiens, UniProt P10145); assay: Dose Response confirmation of uHTS small molecule hits for cystic fibrosis induced NFkb Inhibitors in a TNFa-induced IL8 counterscreen.; format: functional; settings: read-out: IC50_Mean
T2 sequence (P10145 whole entry): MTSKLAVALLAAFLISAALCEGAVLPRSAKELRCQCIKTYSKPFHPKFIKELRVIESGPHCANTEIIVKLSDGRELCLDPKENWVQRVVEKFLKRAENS

[8] = Counterscreen for activators of the function of SWI/SNF related, matrix associated, actin dependent regulator of chromatin, subfamily a, member 2 (SMARCA2, BRM): Luminescence-based cell-based high throughput dose response assay to identify non-selective compounds using the VP16 reporter assay.; format: functional
Interleukin-8 [9] = target: T2, Interleukin-8; assay: Dose Response confirmation of uHTS small molecule hits for cystic fibrosis induced NFkb Inhibitors in a PAF-induced IL8 counterscreen.; format: functional; settings: read-out: IC50_Mean
[10] = target: T3, Sentrin-specific protease 8 (Homo sapiens, UniProt Q96LD8); format: functional;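 further: luminescence read-out of SENP8 inhibition, dose-response confirmation following an ultra-high-throughput screen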
T3 sequence (Q96LD8 whole entry): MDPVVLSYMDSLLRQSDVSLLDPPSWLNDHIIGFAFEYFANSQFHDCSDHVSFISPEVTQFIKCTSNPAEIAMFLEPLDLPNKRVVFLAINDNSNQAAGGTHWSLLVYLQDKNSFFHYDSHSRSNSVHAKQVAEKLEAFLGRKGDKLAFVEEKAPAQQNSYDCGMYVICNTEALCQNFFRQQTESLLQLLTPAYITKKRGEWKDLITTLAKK

[11] = target: T4, Sentrin-specific protease 7 (Homo sapiens, UniProt Q9BQF6); format: functional;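 further: Luminescence-based dose-response confirmation of ultra-high-throughput screening hits, measuring inhibition of SENP7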
T4 sequence (Q9BQF6 whole entry): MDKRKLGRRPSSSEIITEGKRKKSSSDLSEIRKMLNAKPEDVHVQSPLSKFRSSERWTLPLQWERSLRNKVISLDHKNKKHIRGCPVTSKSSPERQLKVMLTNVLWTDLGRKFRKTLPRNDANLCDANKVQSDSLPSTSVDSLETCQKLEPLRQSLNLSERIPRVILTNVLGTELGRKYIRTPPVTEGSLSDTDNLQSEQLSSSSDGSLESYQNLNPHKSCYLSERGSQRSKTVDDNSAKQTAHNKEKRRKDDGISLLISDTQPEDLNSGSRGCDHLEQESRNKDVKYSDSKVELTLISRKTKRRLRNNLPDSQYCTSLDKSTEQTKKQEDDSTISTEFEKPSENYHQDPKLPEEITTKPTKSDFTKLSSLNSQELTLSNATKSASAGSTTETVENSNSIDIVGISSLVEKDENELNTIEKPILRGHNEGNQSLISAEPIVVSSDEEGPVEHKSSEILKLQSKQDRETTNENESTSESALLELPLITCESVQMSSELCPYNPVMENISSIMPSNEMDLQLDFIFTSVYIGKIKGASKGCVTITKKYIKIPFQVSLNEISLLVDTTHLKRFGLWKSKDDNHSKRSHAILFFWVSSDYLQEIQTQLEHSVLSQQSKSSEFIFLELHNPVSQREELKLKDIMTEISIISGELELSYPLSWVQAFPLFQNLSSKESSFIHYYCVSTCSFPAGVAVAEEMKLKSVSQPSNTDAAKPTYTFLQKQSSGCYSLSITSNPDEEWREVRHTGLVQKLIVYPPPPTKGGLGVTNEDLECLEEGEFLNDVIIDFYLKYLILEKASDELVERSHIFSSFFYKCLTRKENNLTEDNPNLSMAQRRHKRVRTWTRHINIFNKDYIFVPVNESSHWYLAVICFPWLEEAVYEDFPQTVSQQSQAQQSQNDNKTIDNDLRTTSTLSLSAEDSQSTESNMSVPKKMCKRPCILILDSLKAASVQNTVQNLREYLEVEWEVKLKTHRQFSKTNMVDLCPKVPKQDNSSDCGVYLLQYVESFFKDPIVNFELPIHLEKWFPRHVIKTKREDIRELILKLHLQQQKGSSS

[12] = target: T5, Low molecular weight phosphotyrosine protein phosphatase (Homo sapiens, UniProt P24666); format: functional; settings: read-out: IC50_Mean
T5 sequence (P24666 whole entry): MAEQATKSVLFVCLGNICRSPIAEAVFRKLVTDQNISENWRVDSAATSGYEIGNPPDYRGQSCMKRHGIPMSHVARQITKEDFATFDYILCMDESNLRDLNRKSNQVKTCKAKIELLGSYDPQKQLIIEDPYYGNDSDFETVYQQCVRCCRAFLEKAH

[13] = target: T6, Sentrin-specific protease 6 (Homo sapiens, UniProt Q9GZR1); format: functional;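 further: Luminescence-based dose-response confirmatory assay of SENP6 inhibition, following up an ultra-high-throughput screen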
T6 sequence (Q9GZR1 whole entry): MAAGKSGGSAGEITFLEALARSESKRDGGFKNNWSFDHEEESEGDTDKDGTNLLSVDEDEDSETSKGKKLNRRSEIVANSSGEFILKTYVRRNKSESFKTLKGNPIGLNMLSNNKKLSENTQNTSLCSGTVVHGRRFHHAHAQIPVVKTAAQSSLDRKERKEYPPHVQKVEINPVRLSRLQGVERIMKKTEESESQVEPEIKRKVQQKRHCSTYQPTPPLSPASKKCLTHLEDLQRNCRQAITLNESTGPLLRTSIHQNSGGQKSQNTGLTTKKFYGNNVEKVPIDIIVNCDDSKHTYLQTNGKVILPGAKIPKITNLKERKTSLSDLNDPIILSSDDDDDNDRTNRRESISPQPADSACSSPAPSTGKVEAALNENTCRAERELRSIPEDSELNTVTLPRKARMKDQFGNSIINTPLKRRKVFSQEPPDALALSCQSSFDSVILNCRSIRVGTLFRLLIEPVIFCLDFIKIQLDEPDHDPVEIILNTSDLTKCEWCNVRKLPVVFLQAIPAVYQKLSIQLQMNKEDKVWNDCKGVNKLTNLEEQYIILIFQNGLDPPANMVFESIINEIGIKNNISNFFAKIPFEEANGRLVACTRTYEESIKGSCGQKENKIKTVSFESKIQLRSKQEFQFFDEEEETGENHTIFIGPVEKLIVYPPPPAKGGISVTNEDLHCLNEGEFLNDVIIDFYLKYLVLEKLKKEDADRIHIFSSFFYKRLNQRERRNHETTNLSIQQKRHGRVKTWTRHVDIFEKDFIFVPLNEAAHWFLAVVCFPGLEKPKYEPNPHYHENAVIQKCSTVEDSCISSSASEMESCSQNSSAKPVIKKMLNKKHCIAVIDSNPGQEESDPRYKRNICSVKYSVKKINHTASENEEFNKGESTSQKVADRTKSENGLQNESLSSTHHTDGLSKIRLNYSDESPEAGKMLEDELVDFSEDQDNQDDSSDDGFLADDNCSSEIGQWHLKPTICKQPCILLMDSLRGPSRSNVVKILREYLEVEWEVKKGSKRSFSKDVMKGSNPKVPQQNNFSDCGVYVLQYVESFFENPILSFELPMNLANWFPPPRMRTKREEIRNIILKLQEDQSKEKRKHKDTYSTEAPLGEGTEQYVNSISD

Caspase-3 = target: T7, Caspase-3 (Homo sapiens, UniProt P42574); format: functional;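 further: Dose-response selectivity test against caspase-3 for candidate inhibitors of sentrin-specific proteases (SENPs)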
T7 sequence (P42574 whole entry): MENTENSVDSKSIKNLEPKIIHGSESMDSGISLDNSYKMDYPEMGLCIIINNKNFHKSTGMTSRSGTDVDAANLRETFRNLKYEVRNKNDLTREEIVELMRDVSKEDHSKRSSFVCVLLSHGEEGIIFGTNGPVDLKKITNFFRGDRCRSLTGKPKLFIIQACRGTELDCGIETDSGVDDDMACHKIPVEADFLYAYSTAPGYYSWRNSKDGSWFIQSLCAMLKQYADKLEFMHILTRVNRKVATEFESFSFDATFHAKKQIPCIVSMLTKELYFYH

[14] = target: T8, Tyrosine-protein phosphatase non-receptor type 22 (Homo sapiens, UniProt Q9Y2R2); assay: PTPN22 enzyme inhibitors – biochemical, fluorescence, LYP catalytic domain, selectivity assay for LMPTP inhibitor project, dose response (AID 652006); format: functional; settings: read-out: IC50_Mean
T8 sequence (Q9Y2R2 whole entry): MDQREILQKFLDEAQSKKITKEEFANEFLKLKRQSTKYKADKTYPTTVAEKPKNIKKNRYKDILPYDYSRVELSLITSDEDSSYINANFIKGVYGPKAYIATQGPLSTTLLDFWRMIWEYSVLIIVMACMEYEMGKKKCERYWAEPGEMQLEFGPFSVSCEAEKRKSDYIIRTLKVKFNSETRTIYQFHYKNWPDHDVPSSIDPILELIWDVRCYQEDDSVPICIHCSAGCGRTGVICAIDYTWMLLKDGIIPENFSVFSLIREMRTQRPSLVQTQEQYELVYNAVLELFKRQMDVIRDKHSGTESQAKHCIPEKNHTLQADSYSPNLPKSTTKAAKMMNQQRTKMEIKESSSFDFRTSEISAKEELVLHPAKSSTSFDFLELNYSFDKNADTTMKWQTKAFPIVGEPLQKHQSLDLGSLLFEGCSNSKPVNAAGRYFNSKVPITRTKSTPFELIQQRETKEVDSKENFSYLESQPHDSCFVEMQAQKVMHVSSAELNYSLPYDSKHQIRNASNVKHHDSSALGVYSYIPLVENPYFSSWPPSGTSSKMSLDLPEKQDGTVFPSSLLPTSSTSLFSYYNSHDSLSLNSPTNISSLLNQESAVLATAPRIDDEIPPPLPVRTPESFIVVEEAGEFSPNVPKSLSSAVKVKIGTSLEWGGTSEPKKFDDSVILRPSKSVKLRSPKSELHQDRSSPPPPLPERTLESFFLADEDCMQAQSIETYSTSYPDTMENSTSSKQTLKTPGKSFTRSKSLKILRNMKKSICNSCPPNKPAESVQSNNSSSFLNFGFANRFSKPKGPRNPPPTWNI

[15] = target: T5, Low molecular weight phosphotyrosine protein phosphatase; format: functional; settings: read-out: IC50_Mean; remark: listed apart in the source

Chain of Induced myeloid leukemia cell differentiation protein Mcl-1 (Q07820 whole entry): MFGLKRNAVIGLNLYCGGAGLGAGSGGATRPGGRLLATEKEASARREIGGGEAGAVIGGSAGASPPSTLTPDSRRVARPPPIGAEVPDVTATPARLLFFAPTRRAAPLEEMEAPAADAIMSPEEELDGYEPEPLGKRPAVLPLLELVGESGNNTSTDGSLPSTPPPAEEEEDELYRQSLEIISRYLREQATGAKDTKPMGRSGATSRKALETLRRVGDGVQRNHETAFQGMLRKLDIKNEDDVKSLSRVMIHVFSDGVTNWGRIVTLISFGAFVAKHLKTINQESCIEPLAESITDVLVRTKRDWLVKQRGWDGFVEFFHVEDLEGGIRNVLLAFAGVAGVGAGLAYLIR

IC50 [1]: 1.13 µM (active) | IC50 [2]: > 50 µM (not active) | IC50 [3]: 2.31 µM (active)
SMILES: CCOC(=O)c1c(C)oc2c1c(CN1CCN(CCO)CC1)c(O)c1ccccc12

SMILES: CCc1cc(=O)oc2c(C)c(OCC(=O)NCCN3CCOCC3)ccc12
IC50 [4]: 35.9 µM (inactive) | IC50 [5]: 35.9 µM (inactive) | IC50 (Steroidogenic factor 1): 9.97 µM (active)

SMILES: C=C1C(=O)[C@]23C[C@H]1CC[C@H]2[C@]1(C)[C@@H](OC(C)=O)CC[C@@](C)(C(=O)O)[C@H]1C[C@@H]3O
AC50 (Paired box protein Pax-8): 4.07 µM (active) | EC50 [6]: > 91.3 µM (inactive) | IC50 (Interleukin-8 [7]): > 79 µM (inactive) | EC50 [8]: > 91.3 µM (inactive) | IC50 (Interleukin-8 [9]): 0.293 µM (active)

IC50 [11]: 8.1 µM (active) | IC50 [12]: 9.98 µM (active) | IC50 [13]: 15.2 µM (active) | IC50 (Caspase-3): > 100 µM (inactive) | IC50 [14]: 43.6 µM (inactive) | IC50 [15]: 22.2 µM (inactive)
SMILES: O=C(/C=C/c1ccc(Br)cc1)NC(=O)c1ccccc1O
IC50 [10]: 26.9 µM (active)
